Source: patent US20230167127A1, “COMPOUNDS AND THEIR USE IN THE TREATMENT OF BACTERIAL INFECTION” (Hoffmann-La Roche Inc., priority 2020, published 2023)
Counter-ions that a name gives are not always drawn.

Tested on: Escherichia coli ATCC 25922
Test: 50% growth inhibitory concentration (IC50) determination, Iso-Sensitest broth dilution
Type: cell-based
Settings: Escherichia coli, ATCC25922, 16 h, strain Escherichia coli ATCC 25922; 10-point broth dilution, optical density at 600 nm over 16 h; read-out: Escherichia coli growth inhibition IC50
In short: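 10-point twofold Iso-Sensitest broth dilution (e.g. 50 to 0.097 μM final) with DMSO stocks, incubated at 35±2° C. Growth followed by OD 600 nm every 20 min over 16 h; IC50 derived from growth inhibition during logarithmic phase.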

Structure (SMILES) | IC50
CNC(=O)COc1ccc2c(c1F)CC(CN1CCC3(CC1)CN(c1cnc4c(n1)NC(=O)CO4)C(=O)O3)C2 (centres unmarked) [Example 336, 2-[[4-fluoro-2-[[2-oxo-3-(3-oxo-4H-pyrazino[2,3-b][1,4]oxazin-6-yl)-1-oxa-3,8-diazaspiro[4.5]decan-8-yl]methyl]-2,3-dihydro-1H-inden-5-yl]oxy]-N-methylacetamide] | < 97.7 nM
CS(=O)(=O)NCCOc1ccc2c(c1C#N)CC(CNCCC1CN(c3ccc4c(n3)NC(=O)CO4)C(=O)O1)C2 (centres unmarked) [Example 59, N-[2-[[4-cyano-2-[[2-[2-oxo-3-(3-oxo-4H-pyrido[3,2-b][1,4]oxazin-6-yl)-1,3-oxazolidin-5-yl]ethylamino]methyl]-2,3-dihydro-1H-inden-5-yl]oxy]ethyl]methanesulfonamide] | 253 nM
CNC(=O)COc1cc(F)c2c(c1)CC(CNCCC1CN(c3cnc4c(n3)NC(=O)CO4)C(=O)O1)C2 (centres unmarked) [Example 310, 2-[[7-fluoro-2-[[2-[2-oxo-3-(3-oxo-4H-pyrazino[2,3-b][1,4]oxazin-6-yl)-1,3-oxazolidin-5-yl]ethylamino]methyl]-2,3-dihydro-1H-inden-5-yl]oxy]-N-methylacetamide; formic acid] | 180 nM

Now from value to molecule:

IC50 | Structure (SMILES)
88.4 nM | Cc1nc(OCC2COCCN2)c(C)c2c1CC(CNCCC1CN(c3ccc4c(n3)NC(=O)CO4)C(=O)O1)C2 (centres unmarked) [Example 199, 6-[5-[2-[[1,4-dimethyl-3-(morpholin-3-ylmethoxy)-6,7-dihydro-5H-cyclopenta[c]pyridin-6-yl]methylamino]ethyl]-2-oxo-1,3-oxazolidin-3-yl]-4H-pyrido[3,2-b][1,4]oxazin-3-one]
< 97.7 nM | O=C1COc2ncc(N3CC(CCNCC4Cc5cc(OC6CNC6)cc(F)c5C4)OC3=O)nc2N1 (centres unmarked) [Example 358, 6-[5-[2-[[6-(azetidin-3-yloxy)-4-fluoro-2,3-dihydro-1H-inden-2-yl]methylamino]ethyl]-2-oxo-1,3-oxazolidin-3-yl]-4H-pyrazino[2,3-b][1,4]oxazin-3-one; hydrochloride]
